Experimental data taken from the NIST ThermoML archive (doi:10.1016/j.fluid.2014.09.014).

Assay: refractive index (other wavelength) (dimensionless); xn = mol fraction of the nth substance listed
Conditions: 101 kPa, Liquid, Standard Abbe refractometry

CC(C)OC(C)C [diisopropyl ether] + CC(C)O
refractive index
Conditions	Wavelength=404.7 nm	Wavelength=435.8 nm	Wavelength=486.1 nm	Wavelength=546.1 nm	Wavelength=587.6 nm	Wavelength=589.3 nm	Wavelength=632.8 nm	Wavelength=644 nm	Wavelength=706.5 nm
313.15 K, x1 = 0.0277	–	–	–	–	–	1.36835	1.36708	1.36678	1.36533
313.15 K, x1 = 0.0507	–	–	–	–	–	1.36828	1.367	1.3667	1.36524
313.15 K, x1 = 0.051	–	–	–	–	–	1.36822	1.36696	1.36665	1.3652
313.15 K, x1 = 0.0717	–	–	–	–	–	1.36787	1.36659	1.36629	1.36485
313.15 K, x1 = 0.1528	–	–	–	–	–	1.36718	1.3659	1.36561	1.36418
313.15 K, x1 = 0.1553	–	–	–	–	–	1.36718	1.3659	1.36561	1.36418
313.15 K, x1 = 0.1938	–	–	–	–	–	1.36694	1.36566	1.36537	1.36394
313.15 K, x1 = 0.2029	–	–	–	–	–	1.3664	1.36512	1.36482	1.36337
313.15 K, x1 = 0.245	–	–	–	–	–	1.36591	1.36465	1.36436	1.36294
313.15 K, x1 = 0.297	–	–	–	–	–	1.36507	1.36381	1.36351	1.36209
313.15 K, x1 = 0.2973	–	–	–	–	–	1.36529	1.36401	1.36372	1.3623
313.15 K, x1 = 0.3068	–	–	–	–	–	1.36504	1.36377	1.36347	1.36204
313.15 K, x1 = 0.398	–	–	–	–	–	1.3637	1.36244	1.36213	1.36071
313.15 K, x1 = 0.4609	–	–	–	–	–	1.36297	1.36172	1.36142	1.35999
313.15 K, x1 = 0.5434	–	–	–	–	1.36211	1.36206	1.36081	1.36051	1.35908
313.15 K, x1 = 0.6032	–	–	–	–	1.36136	1.3613	1.36007	1.35977	1.35834
313.15 K, x1 = 0.6371	–	–	–	–	1.36099	1.36094	1.3597	1.3594	1.358
313.15 K, x1 = 0.701	–	–	–	–	1.36025	1.36019	1.35895	1.35865	1.35723
313.15 K, x1 = 0.754	–	–	–	–	1.35981	1.35976	1.35851	1.35821	1.35681
313.15 K, x1 = 0.791	–	–	–	–	1.35941	1.35936	1.35812	1.35782	1.35641
313.15 K, x1 = 0.8296	–	–	–	–	1.35902	1.35897	1.35772	1.35742	1.35602
313.15 K, x1 = 0.8864	–	–	–	–	1.3589	1.35885	1.35758	1.35729	1.35589
313.15 K, x1 = 0.8903	–	–	–	–	1.35833	1.35827	1.35704	1.35674	1.35534
313.15 K, x1 = 0.9113	–	–	–	–	1.35809	1.35802	1.35679	1.3565	1.3551
313.15 K, x1 = 0.9547	–	–	–	–	1.35761	1.35756	1.35631	1.35601	1.3546
313.15 K, x1 = 0.973	–	–	–	–	1.35727	1.35722	1.35599	1.3557	1.35426
313.15 K, x1 = 0.9771	–	–	–	–	1.35715	1.3571	1.35587	1.35587	1.35416
313.15 K, x1 = 1	–	–	–	–	1.357	1.35694	1.35572	1.35543	1.35401
318.15 K, x1 = 0.0277	1.37668	1.37373	1.37036	1.36758	1.36611	1.36605	1.36479	1.36448	1.36305
318.15 K, x1 = 0.0507	1.37662	1.37367	1.3703	1.36752	1.36604	1.36598	1.36472	1.36443	1.363
318.15 K, x1 = 0.051	1.37654	1.3736	1.37024	1.36745	1.36598	1.36592	1.36464	1.36435	1.36292
318.15 K, x1 = 0.0717	1.37616	1.37322	1.36986	1.36708	1.36563	1.36557	1.36428	1.36398	1.36256
318.15 K, x1 = 0.1528	1.3755	1.37255	1.36919	1.36641	1.36495	1.36489	1.36364	1.36335	1.3619
318.15 K, x1 = 0.1553	1.3755	1.37255	1.36919	1.36641	1.36495	1.36489	1.36364	1.36335	1.3619
318.15 K, x1 = 0.1938	1.37525	1.37231	1.36894	1.36618	1.3647	1.36465	1.36338	1.36309	1.36166
318.15 K, x1 = 0.2029	1.37457	1.37164	1.36826	1.36546	1.36403	1.36398	1.36273	1.36243	1.361
318.15 K, x1 = 0.245	1.374	1.37107	1.36775	1.36498	1.36354	1.36348	1.36223	1.36194	1.36053
318.15 K, x1 = 0.297	1.37308	1.37014	1.36682	1.36402	1.36259	1.36254	1.36131	1.36101	1.35958
318.15 K, x1 = 0.2973	1.37334	1.3704	1.36706	1.36427	1.36283	1.36278	1.36153	1.36123	1.35982
318.15 K, x1 = 0.3068	1.37306	1.37013	1.36679	1.36402	1.3626	1.36255	1.36129	1.36098	1.35954
318.15 K, x1 = 0.398	1.37184	1.36891	1.36558	1.36283	1.36139	1.36134	1.36008	1.35978	1.35836
318.15 K, x1 = 0.4609	1.37087	1.36796	1.36464	1.36184	1.36044	1.36036	1.35912	1.35883	1.3574
318.15 K, x1 = 0.5434	1.36988	1.36693	1.36363	1.36086	1.35943	1.35938	1.35814	1.35784	1.35643
318.15 K, x1 = 0.6032	1.36911	1.36618	1.36282	1.36011	1.35865	1.3586	1.35735	1.35707	1.35568
318.15 K, x1 = 0.6371	1.36872	1.36578	1.36247	1.35971	1.35829	1.35824	1.35701	1.35671	1.35531
318.15 K, x1 = 0.701	1.36791	1.36501	1.36166	1.35892	1.35749	1.35743	1.35619	1.35591	1.35452
318.15 K, x1 = 0.754	1.36743	1.36453	1.36123	1.35847	1.35706	1.357	1.35577	1.35547	1.35407
318.15 K, x1 = 0.791	1.36699	1.36408	1.3608	1.35802	1.35663	1.35658	1.35537	1.35507	1.35364
318.15 K, x1 = 0.8296	1.36655	1.36364	1.36034	1.3576	1.35619	1.35614	1.35491	1.35461	1.3532
318.15 K, x1 = 0.8864	1.36644	1.36355	1.36022	1.35745	1.35605	1.35599	1.35478	1.35448	1.35309
318.15 K, x1 = 0.8903	1.36584	1.36294	1.35967	1.35689	1.35548	1.35543	1.35421	1.35391	1.35251
318.15 K, x1 = 0.9113	1.36554	1.36264	1.3594	1.35663	1.35521	1.35515	1.35395	1.35366	1.35225
318.15 K, x1 = 0.9547	1.3651	1.36222	1.35891	1.35618	1.35475	1.35469	1.35346	1.35317	1.3518
318.15 K, x1 = 0.973	1.3647	1.36182	1.35854	1.3558	1.35439	1.35433	1.35311	1.35281	1.35143
318.15 K, x1 = 0.9771	1.36468	1.36178	1.35849	1.35575	1.35433	1.35427	1.35304	1.35276	1.35139
318.15 K, x1 = 1	1.36447	1.36157	1.35832	1.35556	1.35416	1.35411	1.3529	1.35259	1.3512
